Test [1] addresses human JAK1 (a.a. 837-1142) (Homo sapiens, UniProt P23458). The test can be described thus: In vitro JAK kinase assay (HTRF, phosphorylation of biotinylated peptide), JAK1. The settings on record: 1 mM ATP. Format: biochemical. Put shortly:
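His-tagged human JAK1 catalytic domain (a.a. 837-1142), baculovirus/insect-cell expressed, phosphorylates a biotinylated peptide for 1 h at room temperature. Reaction stopped with EDTA; product detected by HTRF (SA-APC, Eu-Py20, 40 min binding). IC50 reported as ranges.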
For orientation: In TR-FRET formats the signal depends on donor and acceptor labels being close together.

The target in another test is T1, JAK2 (a.a. 828-1132) (Homo sapiens, UniProt O60674).
T1 construct: JAK2 (a.a. 828-1132); His tag (N)
The test can be described thus: In vitro JAK kinase assay (HTRF, phosphorylation of biotinylated peptide), JAK2. Format: biochemical. The settings on record: 1 mM ATP. Put shortly: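 His-tagged catalytic domains of human JAK1 (a.a. 837-1142) and JAK2 (a.a. 828-1132), baculovirus-expressed, phosphorylate a biotinylated peptide for 1 hour at room temperature. Stopped with EDTA; detected by HTRF using SA-APC and Eu-Py20 antibody after 40 min binding; values binned as ranges.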

Here are results for 20 compounds from patent US10640506B2, “Cyclobutyl substituted pyrrolopyridine and pyrrolopyrimidines derivatives as JAK inhibitors” (Incyte Corporation, priority 2010, dated 2020).

Like-named read-outs stand apart in the source and are kept apart here.

T1 sequence (O60674 828-1132): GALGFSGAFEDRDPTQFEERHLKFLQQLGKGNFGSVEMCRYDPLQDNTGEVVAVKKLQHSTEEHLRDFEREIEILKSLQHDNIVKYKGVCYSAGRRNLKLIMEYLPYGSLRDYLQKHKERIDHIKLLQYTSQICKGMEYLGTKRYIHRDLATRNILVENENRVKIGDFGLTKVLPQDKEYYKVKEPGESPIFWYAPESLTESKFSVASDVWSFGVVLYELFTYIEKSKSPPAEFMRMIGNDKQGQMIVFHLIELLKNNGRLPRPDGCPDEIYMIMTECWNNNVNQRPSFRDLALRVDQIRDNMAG
human JAK1 (a.a. 837-1142), sequence (P23458 849-1154): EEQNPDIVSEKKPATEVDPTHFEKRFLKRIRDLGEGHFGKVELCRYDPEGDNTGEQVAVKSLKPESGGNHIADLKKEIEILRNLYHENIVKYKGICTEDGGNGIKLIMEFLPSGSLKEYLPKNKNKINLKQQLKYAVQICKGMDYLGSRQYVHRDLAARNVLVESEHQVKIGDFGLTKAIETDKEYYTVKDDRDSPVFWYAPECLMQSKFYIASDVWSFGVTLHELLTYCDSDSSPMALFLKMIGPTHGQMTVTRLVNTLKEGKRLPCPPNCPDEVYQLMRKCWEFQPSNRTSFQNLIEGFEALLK

As for `CC(C)(C)CNC(=O)N1CCN([C@H]2C[C@](CC#N)(n3cc(-c4ncnc5[nH]ccc45)cn3)C2)CC1` [Example 100, 4-{trans-3-(cyanomethyl)-3-[4-(7H-pyrrolo[2,3-d]pyrimidin-4-yl)-1H-pyrazol-1-yl]cyclobutyl}-N-(2,2-dimethylpropyl)piperazine-1-carboxamide], the IC50 (in general, the concentration at which inhibition is half-maximal) in test [1] (Table F) was 10 to 25 nM; at JAK2 (a.a. 828-1132) (Table F), more than 100 nM.

Regarding `N#CC[C@]1(n2cc(-c3ncnc4[nH]ccc34)cn2)C[C@@H](N2CCN(C(=O)c3ncc(C(F)(F)F)cc3F)CC2)C1` [Example 27, {cis-3-(4-{[3-fluoro-5-(trifluoromethyl)pyridin-2-yl]carbonyl}piperazin-1-yl)-1-[4-(7H-pyrrolo[2,3-d]pyrimidin-4-yl)-1H-pyrazol-1-yl]cyclobutyl}acetonitrile], the IC50 in test [1] (Table A, read-out: JAK1 IC50) is less than 10 nM; at JAK2 (a.a. 828-1132) (Table A, read-out: JAK2 IC50), 25 to 100 nM.

For `N#CC[C@]1(n2cc(-c3ncnc4[nH]ccc34)cn2)C[C@H](N2CCN(C(=O)NC(C(F)(F)F)C(F)(F)F)CC2)C1` [Example 152, 4-{trans-3-(Cyanomethyl)-3-[4-(7H-pyrrolo[2,3-d]pyrimidin-4-yl)-1H-pyrazol-1-yl]cyclobutyl}-N-[2,2,2-trifluoro-1-(trifluoromethyl)ethyl]piperazine-1-carboxamide], the IC50 was less than 10 nM in test [1] (Table F) and more than 100 nM against JAK2 (a.a. 828-1132) (Table F).

As for `C[C@H]1CCCN1Cc1cc(F)cc(OC2CCN(C3CC(CC#N)(n4cc(-c5ncnc6[nH]ccc56)cn4)C3)CC2)c1` (single isomer, unassigned; isomer 1) [Example 41, isomer 1], the IC50 in test [1] (read-out: JAK1 IC50 (nM) at 1 mM, Table E) is less than 10 nM; on JAK2 (a.a. 828-1132) (Table E, listed as 41, isomer 1, read-out: JAK2 IC50 (nM) +) it was 10 to 25 nM.

For `CN(C)Cc1cc(CN2CCN([C@H]3C[C@](CC#N)(n4cc(-c5ncnc6[nH]ccc56)cn4)C3)CC2)cc(C(F)(F)F)c1` [Example 45, {trans-3-{4-[3-[(dimethylamino)methyl]-5-(trifluoromethyl)benzyl]piperazin-1-yl}-1-[4-(7H-pyrrolo[2,3-d]pyrimidin-4-yl)-1H-pyrazol-1-yl]cyclobutyl}acetonitrile], the IC50 (in test [1] (Table F); on JAK2 (a.a. 828-1132) (Table F)) was more than 100 nM each time.

`CC(C)(C)NCc1cc(OC2CCN([C@H]3C[C@@](CC#N)(n4cc(-c5ncnc6[nH]ccc56)cn4)C3)CC2)nc(C(F)(F)F)c1` [Example 128, {cis-3-(4-{[4-[(tert-butylamino)methyl]-6-(trifluoromethyl)pyridin-2-yl]oxy}piperidin-1-yl)-1-[4-(7H-pyrrolo[2,3-d]pyrimidin-4-yl)-1H-pyrazol-1-yl]cyclobutyl}acetonitrile]: the figures for the IC50 (in test [1] (Table F); at JAK2 (a.a. 828-1132) (Table F)) were 25 to 100 nM and more than 100 nM, respectively.

As to `CC(C)(O)c1cc(C(=O)N2CCN([C@H]3C[C@](CC#N)(n4cc(-c5ncnc6[nH]ccc56)cn4)C3)CC2)nc(C(F)(F)F)c1` [Example 75, {trans-3-(4-{[4-(1-hydroxy-1-methylethyl)-6-(trifluoromethyl)pyridin-2-yl]carbonyl}piperazin-1-yl)-1-[4-(7H-pyrrolo[2,3-d]pyrimidin-4-yl)-1H-pyrazol-1-yl]cyclobutyl}acetonitrile], the IC50 in test [1] (Table F) was less than 10 nM; on JAK2 (a.a. 828-1132) (Table F), 10 to 25 nM.

With `CN(C)Cc1cc(OC2CCN([C@H]3C[C@](CC#N)(n4cc(-c5ncnc6[nH]ccc56)cn4)C3)CC2)cc(C(F)F)c1` [Example 140, {trans-3-(4-{3-(difluoromethyl)-5-[(dimethylamino)methyl]phenoxy}piperidin-1-yl)-1-[4-(7H-pyrrolo[2,3-d]pyrimidin-4-yl)-1H-pyrazol-1-yl]cyclobutyl}acetonitrile], the results for the IC50 (in test [1] (Table F); on JAK2 (a.a. 828-1132) (Table F)) were 10 to 25 nM and more than 100 nM, respectively.

Turning to `N#CC[C@]1(n2cc(-c3ncnc4[nH]ccc34)cn2)C[C@H](N2CCN(C(=O)c3cc(C4(O)CCC4)nc(C(F)(F)F)n3)CC2)C1` [Example 72, {trans-3-(4-{[6-(1-hydroxycyclobutyl)-2-(trifluoromethyl)pyrimidin-4-yl]carbonyl}piperazin-1-yl)-1-[4-(7H-pyrrolo[2,3-d]pyrimidin-4-yl)-1H-pyrazol-1-yl]cyclobutyl}acetonitrile], the values for the IC50 (in test [1] (Table F); on JAK2 (a.a. 828-1132) (Table F)) were less than 10 nM and 10 to 25 nM, respectively.

On to `CN(C)Cc1cc(C#N)cc(CN2CCN([C@H]3C[C@@](CC#N)(n4cc(-c5ncnc6[nH]ccc56)cn4)C3)CC2)c1` [Example 44, 3-[(4-{cis-3-(cyanomethyl)-3-[4-(7H-pyrrolo[2,3-d]pyrimidin-4-yl)-1H-pyrazol-1-yl]cyclobutyl}piperazin-1-yl)methyl]-5-[(dimethylamino)methyl]benzonitrile], for which the IC50 is 10 to 25 nM in test [1] (Table F) and more than 100 nM on JAK2 (a.a. 828-1132) (Table F).

As to `N#CC[C@]1(n2cc(-c3ncnc4[nH]ccc34)cn2)C[C@H](N2CCN(C(=O)c3cc(F)cc(F)c3)CC2)C1` [Example 8b, {trans-3-[4-(3,5-difluorobenzoyl)piperazin-1-yl]-1-[4-(7H-pyrrolo[2,3-d]pyrimidin-4-yl)-1H-pyrazol-1-yl]cyclobutyl}acetonitrile], the IC50 was less than 10 nM in test [1] (Table B, read-out: JAK1 IC50) and less than 10 nM at JAK2 (a.a. 828-1132) (Table B, read-out: JAK2 IC50).

In the case of `N#CC[C@]1(n2cc(-c3ncnc4[nH]ccc34)cn2)C[C@H](N2CCC(Oc3cc(CNCCCO)cc(C(F)(F)F)n3)CC2)C1` [Example 155, {trans-3-(4-{[4-{[(3-hydroxypropyl)amino]methyl}-6-(trifluoromethyl)pyridin-2-yl]oxy}piperidin-1-yl)-1-[4-(7H-pyrrolo[2,3-d]pyrimidin-4-yl)-1H-pyrazol-1-yl]cyclobutyl}acetonitrile], the IC50 is less than 10 nM in test [1] (Table F) and 25 to 100 nM on JAK2 (a.a. 828-1132) (Table F).

Turning to `N#CC[C@]1(n2cc(-c3ncnc4[nH]ccc34)cn2)C[C@H](N2CCC(Oc3cc(CN4CCC(F)(F)C4)cc(C(F)(F)F)n3)CC2)C1` [Example 160, {trans-3-(4-{[4-[(3,3-difluoropyrrolidin-1-yl)methyl]-6-(trifluoromethyl)pyridin-2-yl]oxy}piperidin-1-yl)-1-[4-(7H-pyrrolo[2,3-d]pyrimidin-4-yl)-1H-pyrazol-1-yl]cyclobutyl}acetonitrile], the IC50 in test [1] (Table F) was 10 to 25 nM; on JAK2 (a.a. 828-1132) (Table F), more than 100 nM.

As to `COCc1cc(C(=O)N2CCN([C@H]3C[C@](CC#N)(n4cc(-c5ncnc6[nH]ccc56)cn4)C3)CC2)nc(C(F)(F)F)n1` [Example 60, {trans-3-(4-{[6-(methoxymethyl)-2-(trifluoromethyl)pyrimidin-4-yl]carbonyl}piperazin-1-yl)-1-[4-(7H-pyrrolo[2,3-d]pyrimidin-4-yl)-1H-pyrazol-1-yl]cyclobutyl}acetonitrile], the IC50 in test [1] (Table F) is less than 10 nM; against JAK2 (a.a. 828-1132) (Table F), 25 to 100 nM.

As to `CN(C)C1(c2cc(C(=O)N3CCN([C@H]4C[C@](CC#N)(n5cc(-c6ncnc7[nH]ccc67)cn5)C4)CC3)nc(C(F)(F)F)n2)CCC1` [Example 63, {trans-3-(4-{[6-[1-(dimethylamino)cyclobutyl]-2-(trifluoromethyl)pyrimidin-4-yl]carbonyl}piperazin-1-yl)-1-[4-(7H-pyrrolo[2,3-d]pyrimidin-4-yl)-1H-pyrazol-1-yl]cyclobutyl}acetonitrile], the 50% inhibitory concentration (IC50) in test [1] (Table F) was less than 10 nM; at JAK2 (a.a. 828-1132) (Table F), 25 to 100 nM.

`N#CC[C@]1(n2cc(-c3ncnc4[nH]ccc34)cn2)C[C@H](N2CCN(C(=O)N[C@H]3CC[C@H](O)CC3)CC2)C1` [Example 86, 4-{trans-3-(cyanomethyl)-3-[4-(7H-pyrrolo[2,3-d]pyrimidin-4-yl)-1H-pyrazol-1-yl]cyclobutyl}-N-(trans-4-hydroxycyclohexyl)piperazine-1-carboxamide]: the IC50 in test [1] (Table F) is 10 to 25 nM; on JAK2 (a.a. 828-1132) (Table F), 25 to 100 nM.

For the compound `CN(C)Cc1cc(OC2CCN([C@H]3C[C@](CC#N)(n4cc(-c5ncnc6[nH]ccc56)cn4)C3)CC2)cc(C(F)(F)F)c1` [Example 138, {trans-3-{4-[3-[(Dimethylamino)methyl]-5-(trifluoromethyl)phenoxy]piperidin-1-yl}-1-[4-(7H-pyrrolo[2,3-d]pyrimidin-4-yl)-1H-pyrazol-1-yl]cyclobutyl}acetonitrile], the concentration for half-maximal inhibition (IC50) in test [1] (Table F) was 10 to 25 nM; against JAK2 (a.a. 828-1132) (Table F) it was more than 100 nM.

Regarding `N#CC[C@]1(n2cc(-c3ncnc4[nH]ccc34)cn2)C[C@H](N2CCN(C(=O)c3cc(CO)nc(C(F)(F)F)n3)CC2)C1` [Example 51, {trans-3-(4-{[6-(hydroxymethyl)-2-(trifluoromethyl)pyrimidin-4-yl]carbonyl}piperazin-1-yl)-1-[4-(7H-pyrrolo[2,3-d]pyrimidin-4-yl)-1H-pyrazol-1-yl]cyclobutyl}acetonitrile], the IC50 in test [1] (Table F) was less than 10 nM; against JAK2 (a.a. 828-1132) (Table F), 25 to 100 nM.

For the compound `CC(C)(O)c1cc(OC2CCN([C@H]3C[C@@](CC#N)(n4cc(-c5ncnc6[nH]ccc56)cn4)C3)CC2)nc(C(F)(F)F)c1` (single isomer, unassigned) [Example 126, {cis-3-(4-{[4-(1-hydroxy-1-methylethyl)-6-(trifluoromethyl)pyridin-2-yl]oxy}piperidin-1-yl)-1-[4-(7H-pyrrolo[2,3-d]pyrimidin-4-yl)-1H-pyrazol-1-yl]cyclobutyl}acetonitrile], the IC50 in test [1] (Table F) is 10 to 25 nM; against JAK2 (a.a. 828-1132) (Table F), more than 100 nM.

With `CC(C)(O)c1cc(C(=O)N2CCN([C@H]3C[C@@](CC#N)(n4cc(-c5ncnc6[nH]ccc56)cn4)C3)CC2)nc(C(F)(F)F)n1` [Example 59, {cis-3-(4-{[6-(1-hydroxy-1-methylethyl)-2-(trifluoromethyl)pyrimidin-4-yl]carbonyl}piperazin-1-yl)-1-[4-(7H-pyrrolo[2,3-d]pyrimidin-4-yl)-1H-pyrazol-1-yl]cyclobutyl}acetonitrile], the IC50 in test [1] (Table F) was less than 10 nM; on JAK2 (a.a. 828-1132) (Table F), 25 to 100 nM.
